For one series, the system named is Liver microsome. Description: Drug metabolism in human liver microsomes assessed as 2-methylbenzaldehyde formation at 500 uM incubated for 1 hr in presence of GSH and NADPH and by LC-MS/MS based GSH trapping assay. It counts as ADME.
Series [1] concerns the target Free fatty acid receptor 1 (Homo sapiens, UniProt O14842). The experiment in a line: Agonist activity at human GPR40 expressed in CHO cells assessed as calcium flux by FLIPR assay. Type of series: functional, cell-based.

The structures appear in SMILES notation.

Free fatty acid receptor 1, sequence (O14842 whole entry): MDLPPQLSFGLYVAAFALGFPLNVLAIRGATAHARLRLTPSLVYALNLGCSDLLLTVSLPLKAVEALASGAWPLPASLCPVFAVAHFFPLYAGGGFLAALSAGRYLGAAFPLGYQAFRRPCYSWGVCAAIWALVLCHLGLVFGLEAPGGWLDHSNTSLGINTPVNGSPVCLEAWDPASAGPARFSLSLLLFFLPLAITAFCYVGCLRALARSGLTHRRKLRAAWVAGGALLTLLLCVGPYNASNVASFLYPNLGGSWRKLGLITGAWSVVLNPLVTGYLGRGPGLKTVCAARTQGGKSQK

For `CCOC(CC(=O)O)c1ccc(OCc2ccccc2C)cc1` (racemic), the Drug metabolism result in the series on Liver microsome was “metabolite_detected”.
Usually EC50 stands for the concentration needed to bring the measured effect to its halfway point. Turning to `CCO[C@@H](CC(=O)O)c1ccc(O[C@@H]2CCc3c(Cl)cccc32)cc1`, in series [1], the EC50 came out at 0.005 µM.
For `CCO[C@@H](CC(=O)O)c1ccc(O[C@H]2CCc3ccccc32)cc1`, the EC50 in series [1] is 0.069 µM.
The same measure, in the same setting: next, `CCO[C@@H](CC(=O)O)c1ccc(O[C@H]2CCc3c2cccc3C(F)(F)F)cc1`: 0.019 µM.
Still for that read-out and setting: the result for `CCO[C@H](CC(=O)O)c1ccc(O[C@@H]2CCc3c2cccc3C(F)(F)F)cc1` reads 0.33 µM.
Take `CCO[C@@H](CC(=O)O)c1ccc(O[C@@H]2CCCc3ccccc32)cc1`: in series [1], the EC50 was 0.062 µM.
As to `CCO[C@@H](CC(=O)O)c1ccc(O[C@@H]2CCc3c(C)cccc32)cc1`, in series [1], the concentration for a half-maximal effect (EC50) amounted to 0.029 µM.
Take `CCO[C@@H](CC(=O)O)c1ccc(OCc2ccc(Cl)c(Cl)c2)cc1`: the EC50 in series [1] turned out to be 0.0039 µM.
